Measurements published in patent US8691799B2, “Materials and methods for treatment of cancer and identification of anti-cancer compounds” (priority 2001, dated 2014).
“Also recorded” adds a separate entry of the source.

Tests used:
phosphotyrosine STAT3 = experiment: Western blotting for phosphotyrosine STAT3 in cancer cell lines; type: cell-based, human; conditions: A-549 cells; for inhibition of phospho STAT3 levels (in words): 0-10 μM; for IC50: Western blotting, read-out: IC50 for phospho-STAT3
Method: (§1) Western Blotting. Treated cell samples were lysed in 30 mM Hepes, pH 7.5, 10 mM NaCl, 5 mM MgCl2, 25 mM NaF, 1 mM EGTA, 1% Triton-X-100, 10% glycerol, 2 mM sodium orthovanadate, 10 μg/ml aprotinin, 10 μg/ml soybean trypsin inhibitor, 25 μg/ml leupeptin, 2 mM PMSF, and 6.4 mg/ml p-nitrophenylphosphate. Phospho-STAT3, phospho-AKT, phospho-MEK, and phospho-p42/p44 MAPK antibodies were obtained from Cell Signaling Technologies, Cambridge, Mass. Antibodies to STAT3, JAK2, and phospho-INK were purchased from Santa Cruz Biotechnology, Santa Cruz, Calif. Phospho-JAK2 antibody came from Upstate Biotechnology, Lake Placid, N.Y. Membranes were blocked in either 5% milk in PBS, pH 7.4, containing 0.1% Tween-20 (PBS-T) or 1% BSA in TBS, pH 7.5, containing 0.1% Tween-20 (TBS-T). Phospho-specific antibodies (excepting P-MAPK and P-JNK) were incubated in 1% BSA in TBS-T while all other antibodies were diluted in 5% milk in PBS-T for either 2 hr at room temperature or overnight at 4° C. HRP-conjugated secondary antibodies (Jackson ImmunoResearch) were diluted in 5% milk in either PBS-T or TBS-T at 1:1000 dilution for one hour at room temperature. Western blots were visualized using enhanced chemiluminescence as described previously (Blaskovich, M. A. et al. Nat. Biotechnol., 2000, 18:1065-1070).
Immunoprecipitation of STAT3. A549 cells were treated for 4 hr with vehicle or JSI-124, then lysed in 150 mM Hepes, pH 7.5, 150 mM NaCl, 1 mM EDTA, 0.5% Nonidet P-40 (NP-40), 10% glycerol, 5 mM NaF, 1 mM DTT, 1 mM PMSF, 2 mM sodium orthovanadate, and 5 μg/ml leupeptin. Sample lysates were collected and cleared, then 500 μg of lysate was immunoprecipitated with 50 ng STAT3 antibody overnight at 4° C. then rocked with 25 μl Protein A/G PLUS agarose (Santa Cruz Biotechnology) for 1 hr at 4° C. Samples were washed four times with lysis buffer then boiled in 2×SDS-PAGE sample buffer and run on 10% SDS-PAGE gel. Protein was transferred to nitrocellulose and then blotted as above for both phospho-specific STAT3 and STAT3.

phosphotyrosine JAK2 = experiment: Western blotting for phosphotyrosine JAK2; type: cell-based, human; conditions: A-549 cells; for inhibition of phospho JAK2 levels (in words): 0-10 μM; for IC50: Western blotting, read-out: IC50 for phospho-JAK2
Method: as §1

v-Src/NIH 3T3 tumors = experiment: Antitumor activity, v-Src-transformed NIH 3T3 tumors in nude mice; type: in vivo; conditions: for inhibition of growth of v-src transformed NIH 3T3 tumors (in words): 1 mg/Kg/day intraperitoneally
Text: Antitumor Activity in the Nude Mouse Tumor Xenograft Model. Nude mice and C57 BL-6 black mice (National Cancer Institute, Bethesda, Md.) were maintained in accordance with the Institutional Animal Care and Use Committee (IACUC) procedures and guidelines. v-Src- and oncogenic H-Ras-transformed NIH 3T3, A549, MDA-MB-468 and Calu-1 cells were harvested, resuspended in PBS and injected s.c. into the right and left flank (10×10^6 cells per flank) of 8 week old female nude mice as reported previously (Sun, J. et al. Cancer Res., 1999, 59:4919-4926). Similarly, murine B16-F10 Melanoma cells were injected s.c. into the right and left flank (10^6 cells per flank) of C57 black mice. […] […] The tumor volumes were determined by measuring the length (l) and the width (w) and calculating the volume (V=1w^2/2) as described previously (Sun, J. et al. Cancer Res., 1999, 59:4919-4926). Statistical significance between control and treated animals were evaluated by using Student's t-test. For the mouse survival experiments, C57 BL-6 black mice were implanted s.c. with B16-F10 cells (10^5 to 10^6 cells per flank). […] Percent surviving mice was determined by monitoring the death of mice until all mice died. Two experiments of 12 animals each (6 control and 6 treated with JSI-124) were carried out. For statistical analysis: for each of the two experiments, mice receiving JSI-124 were compared to those receiving vehicle control with respect to survival using the permutation log rank test as implemented in the statistical software package, ProcStatXact (p-values are two sided and exact).

[1] = Tolerability observations in treated mice; type: in vivo
Text: Antitumor Activity in the Nude Mouse Tumor Xenograft Model. Nude mice and C57 BL-6 black mice (National Cancer Institute, Bethesda, Md.) were maintained in accordance with the Institutional Animal Care and Use Committee (IACUC) procedures and guidelines. v-Src- and oncogenic H-Ras-transformed NIH 3T3, A549, MDA-MB-468 and Calu-1 cells were harvested, resuspended in PBS and injected s.c. into the right and left flank (10×10^6 cells per flank) of 8 week old female nude mice as reported previously (Sun, J. et al. Cancer Res., 1999, 59:4919-4926). Similarly, murine B16-F10 Melanoma cells were injected s.c. into the right and left flank (10^6 cells per flank) of C57 black mice. When tumors reached about 150 mm^3, animals were randomized (five animals per group; two tumors per animal) and dosed i.p. with 0.2 ml once daily. […] The tumor volumes were determined by measuring the length (l) and the width (w) and calculating the volume (V=1w^2/2) as described previously (Sun, J. et al. Cancer Res., 1999, 59:4919-4926). Statistical significance between control and treated animals were evaluated by using Student's t-test. For the mouse survival experiments, C57 BL-6 black mice were implanted s.c. with B16-F10 cells (10^5 to 10^6 cells per flank). On day 5 after implantation the mice were randomized (6 animals per group) and treated with either vehicle or JSI-124 (1 mg/Kg/day) for 25 days. Percent surviving mice was determined by monitoring the death of mice until all mice died. Two experiments of 12 animals each (6 control and 6 treated with JSI-124) were carried out. For statistical analysis: for each of the two experiments, mice receiving JSI-124 were compared to those receiving vehicle control with respect to survival using the permutation log rank test as implemented in the statistical software package, ProcStatXact (p-values are two sided and exact).

Compound | inhibition of phospho STAT3 levels (in words) (phosphotyrosine STAT3) | IC50 (phosphotyrosine STAT3) | inhibition of phospho JAK2 levels (in words) (phosphotyrosine JAK2) | IC50 (phosphotyrosine JAK2) | inhibition of growth of v-src transformed NIH 3T3 tumors (in words) (v-Src/NIH 3T3 tumors) | also measured
CC(=O)OC(C)(C)/C=C/C(=O)[C@](C)(O)[C@H]1[C@H](O)C[C@@]2(C)[C@@H]3CC=C4[C@@H](C[C@H](O)C(=O)C4(C)C)[C@]3(CO)C(=O)C[C@]12C [cucurbitacin A] | not phospho STAT3 levels; also recorded: no phospho STAT3 levels | > 10000 nM | inhibits only phospho JAK2 | 1000 nM | did not significantly inhibit tumor growth | inhibition of growth of v-src transformed NIH 3T3 tumors (in words) (v-Src/NIH 3T3 tumors; listed as curbitacin A): did not; inhibition of growth of v-Src/NIH 3T3 tumors (v-Src/NIH 3T3 tumors; 1 mg/kg/day i.p.): 16%
cucurbitacin Q | inhibits phospho STAT3 | 2000 nM | not phospho JAK2 levels | > 10000 nM | inhibit tumor growth; also recorded: as potent as curcubatacin I at inhibiting tumor growth | gain in activity against STAT3 activation versus cucurbitacin B (phosphotyrosine STAT3): 2 fold; inhibition of growth of v-src transformed NIH 3T3 tumors (in words) (v-Src/NIH 3T3 tumors; listed as Cucurbitacin Q): as potent as cucurbatacin I at inhibiting tumor growth
CC(C)(O)CCC(=O)[C@](C)(O)[C@H]1[C@H](O)C[C@@]2(C)[C@@H]3CC=C4[C@@H](C[C@H](O)C(=O)C4(C)C)[C@]3(C)C(=O)C[C@]12C [tetrahydro-cucurbitacin I] |  |  |  |  | inhibit tumor growth | change of activity against phospho-STAT3 versus cucurbitacin I (phosphotyrosine STAT3): reduction of activity against phospho-STAT3 and phospho JAK2; change of activity against phospho JAK2 versus cucurbitacin I (phosphotyrosine JAK2): reduction of activity against phospho-STAT3 and phospho JAK2
CC(=O)OC(C)(C)/C=C/C(=O)[C@](C)(O)[C@H]1[C@H](O)C[C@@]2(C)[C@@H]3CC=C4[C@@H](C=C(O)C(=O)C4(C)C)[C@]3(C)C(=O)C[C@]12C [cucurbitacin E] |  | 800 nM |  | 200 nM | inhibit tumor growth | loss of activity against phospho-STAT3 versus cucurbitacin I (phosphotyrosine STAT3): four-fold
CC(=O)OC(C)(C)/C=C/C(=O)[C@](C)(O)[C@H]1[C@H](O)C[C@@]2(C)[C@@H]3CC=C4[C@H](C[C@H](O)C(=O)C4(C)C)[C@]3(C)C(=O)C[C@]12C [cucurbitacin B] |  | 4000 nM |  | 200 nM |  | additional loss of inhibitory activity against phosphotyrosine-STAT3 versus cucurbitacin E (phosphotyrosine STAT3): five-fold; toxicity in tumor-bearing nude mice at 1 mpk ([1]; 1 mg/kg/day i.p.): toxic; toxicity in tumor-bearing nude mice at 0.2 mpk/day ([1]; 0.2 mpk/day (200 μg/kg/day)): not toxic; inhibition of growth of v-Src/NIH 3T3 tumors, 0.2 mpk/day (v-Src/NIH 3T3 tumors; 0.2 mpk/day): 40%
CC(C)(O)/C=C/C(=O)[C@](C)(O)[C@H]1[C@H](O)C[C@@]2(C)[C@@H]3CC=C4[C@@H](C[C@H](O)C(=O)C4(C)C)[C@]3(C)C(=O)C[C@]12C [cucurbitacin D] |  |  |  |  |  | reduction of activity against phospho STAT3 versus cucurbitacin B (phosphotyrosine STAT3): 2 fold; change of activity against phospho JAK2 versus cucurbitacin B (phosphotyrosine JAK2): no effects
